Laboratory results taken from the supplement of paper PMC7017272.
± gives the standard deviation of the averaged measurements.

What was measured:
UT-SCC-24A = experiment: relative IC50 (midpoint of the fitted curve; maximal inhibition may be below 50%); higher = less potent; details: treatment time: 3 days
Description: (§1)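 HNSCC cell lines (500 cells/well, 384-well) were cultured on plastic, on top of (2D) or embedded (3D) in Matrigel or human leiomyoma matrix Myogel (500 ug/mL; Myogel 3D mixed with rat collagen I). Cells were treated for 3 days with 5 ten-fold concentrations of each drug, and viability was read by CellTiter-Glo. Viability was normalised to DMSO (0% inhibition) and 100 uM benzethonium chloride (100% inhibition) controls and fitted with the FIMM DSRT pipeline to give IC50 (nM), maximal % inhibition and the drug sensitivity score (DSS). Suffixes _1/_2/_3 on drug names are replicates.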

UT-SCC-106A = experiment: relative IC50 (midpoint of the fitted curve; maximal inhibition may be below 50%); higher = less potent; details: treatment time: 3 days
Outline: (§2)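 HPV-negative HNSCC cell lines were seeded at 500 cells/well in 384-well plates on plastic, on Matrigel- or Myogel-coated wells (500 µg/mL), or embedded in Matrigel or Myogel plus rat collagen I. Compounds were given at five 10-fold concentrations for 3 days, and viability was read by CellTiter-Glo 2.0 luminescence. Signals were normalised to vehicle (0.1% DMSO) and cell-killing control wells. Percent-inhibition dose–response curves were fitted in the FIMM pipeline to derive IC50, maximal inhibition and drug sensitivity score.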

UT-SCC-14 [1] = experiment: as above; details: treatment time: 3 days
Outline: as §2

UT-SCC-40 [2] = experiment: as above; details: treatment time: 3 days
Outline: as §2

UT-SCC-42B [3] = experiment: as above; details: culture condition: on top of Myogel; treatment time: 3 days
Outline: as §2

UT-SCC-8 [4] = experiment: as above; details: treatment time: 3 days
Outline: as §2

UT-SCC-44 = experiment: as above; details: treatment time: 3 days
Outline: as §2

UT-SCC-28 [5] = experiment: as above; details: culture condition: plastic 2D (no matrix); treatment time: 3 days
Outline: as §2

UT-SCC-73 = experiment: as above; details: treatment time: 3 days
Outline: as §2

UT-SCC-42A [6] = experiment: as above; details: treatment time: 3 days
Outline: as §2

UT-SCC-81 [7] = experiment: as above; details: treatment time: 3 days
Outline: as §2

UT-SCC-24B [8] = experiment: as above; details: culture condition: on top of Myogel; treatment time: 3 days
Outline: as §2

UT-SCC-14 [9] = experiment: maximal % inhibition of viability relative to DMSO; higher = stronger effect; details: treatment time: 3 days
Description: as §1, with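 “DMSO” for “DMSO (0% inhibition)”, “and” for “and 100 uM”, “chloride” for “chloride (100% inhibition)”, “DSS.” for “the drug sensitivity score (DSS).”, “_1/_2/_3” for “_1/_2/_3 on drug names”, “replicates. Only inhibition-mode (IC50) fits are kept.” for “replicates.”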

UT-SCC-40 [10] = experiment: as above; details: treatment time: 3 days
Description: as §1, with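 “DMSO” for “DMSO (0% inhibition)”, “and” for “and 100 uM”, “chloride” for “chloride (100% inhibition)”, “DSS.” for “the drug sensitivity score (DSS).”, “_1/_2/_3” for “_1/_2/_3 on drug names”, “replicates. Only inhibition-mode (IC50) fits are kept.” for “replicates.”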

UT-SCC-42B [11] = experiment: as above; details: treatment time: 3 days
Description: as §1, with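 “DMSO” for “DMSO (0% inhibition)”, “and” for “and 100 uM”, “chloride” for “chloride (100% inhibition)”, “DSS.” for “the drug sensitivity score (DSS).”, “_1/_2/_3” for “_1/_2/_3 on drug names”, “replicates. Only inhibition-mode (IC50) fits are kept.” for “replicates.”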

UT-SCC-8 [12] = experiment: as above; details: treatment time: 3 days
Description: as §1, with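 “DMSO” for “DMSO (0% inhibition)”, “and” for “and 100 uM”, “chloride” for “chloride (100% inhibition)”, “DSS.” for “the drug sensitivity score (DSS).”, “_1/_2/_3” for “_1/_2/_3 on drug names”, “replicates. Only inhibition-mode (IC50) fits are kept.” for “replicates.”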

UT-SCC-28 [13] = experiment: as above; details: treatment time: 3 days
Description: as §1, with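 “DMSO” for “DMSO (0% inhibition)”, “and” for “and 100 uM”, “chloride” for “chloride (100% inhibition)”, “DSS.” for “the drug sensitivity score (DSS).”, “_1/_2/_3” for “_1/_2/_3 on drug names”, “replicates. Only inhibition-mode (IC50) fits are kept.” for “replicates.”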

UT-SCC-42A [14] = experiment: as above; details: treatment time: 3 days
Description: as §1, with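 “DMSO” for “DMSO (0% inhibition)”, “and” for “and 100 uM”, “chloride” for “chloride (100% inhibition)”, “DSS.” for “the drug sensitivity score (DSS).”, “_1/_2/_3” for “_1/_2/_3 on drug names”, “replicates. Only inhibition-mode (IC50) fits are kept.” for “replicates.”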

UT-SCC-81 [15] = experiment: as above; details: treatment time: 3 days
Description: as §1, with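 “DMSO” for “DMSO (0% inhibition)”, “and” for “and 100 uM”, “chloride” for “chloride (100% inhibition)”, “DSS.” for “the drug sensitivity score (DSS).”, “_1/_2/_3” for “_1/_2/_3 on drug names”, “replicates. Only inhibition-mode (IC50) fits are kept.” for “replicates.”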

UT-SCC-24B [16] = experiment: as above; details: treatment time: 3 days
Description: as §1, with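 “DMSO” for “DMSO (0% inhibition)”, “and” for “and 100 uM”, “chloride” for “chloride (100% inhibition)”, “DSS.” for “the drug sensitivity score (DSS).”, “_1/_2/_3” for “_1/_2/_3 on drug names”, “replicates. Only inhibition-mode (IC50) fits are kept.” for “replicates.”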

[17] = culture condition: on top of Matrigel
[18] = culture condition: on top of Myogel
[19] = culture condition: plastic 2D (no matrix)
[20] = culture condition: embedded in Matrigel
[21] = culture condition: embedded in Myogel + collagen I

SMILES: CO[C@H]1C[C@@H]2CC[C@@H](C)[C@@](O)(O2)C(=O)C(=O)N2CCCC[C@H]2C(=O)O[C@H]([C@H](C)C[C@@H]2CC[C@@H](OC(=O)C(C)(CO)CO)[C@H](OC)C2)CC(=O)[C@H](C)/C=C(\C)[C@@H](O)[C@@H](OC)C(=O)[C@H](C)C[C@H](C)/C=C/C=C/C=C/1C [Temsirolimus]
- relative IC50 (UT-SCC-24A; [17]): 2160 pM
- relative IC50 (UT-SCC-24A; [18]): 2230 pM
- relative IC50 (UT-SCC-24A; [19]): 1660 pM
- relative IC50 (UT-SCC-106A; [17]): 3180 pM
- relative IC50 (UT-SCC-106A; [18]): 4080 pM
- relative IC50 (UT-SCC-106A; [19]): 1950 pM
- relative IC50 (UT-SCC-14 [1]; [20]): 458 pM
- relative IC50 (UT-SCC-14 [1]; [21]): 654 pM
- relative IC50 (UT-SCC-14 [1]; [17]): 765 pM
- relative IC50 (UT-SCC-14 [1]; [18]): 330 pM
- relative IC50 (UT-SCC-14 [1]; [19]): 458 pM
- relative IC50 (UT-SCC-40 [2]; [21]): 2840 pM
- relative IC50 (UT-SCC-40 [2]; [17]): 896 pM
- relative IC50 (UT-SCC-42B [3]): > 98900 pM
- relative IC50 (UT-SCC-8 [4]; [20]): 997 pM
- relative IC50 (UT-SCC-8 [4]; [18]): 785 pM
- relative IC50 (UT-SCC-8 [4]; [19]): 669 pM
- relative IC50 (UT-SCC-44; [17]): 711 pM
- relative IC50 (UT-SCC-44; [19]): 691 pM
- relative IC50 (UT-SCC-28 [5]): 519 pM
- relative IC50 (UT-SCC-73; [21]): 997 pM
- relative IC50 (UT-SCC-73; [17]): 383 pM
- relative IC50 (UT-SCC-73; [19]): 1060 pM
- relative IC50 (UT-SCC-42A [6]; [20]): 5490 pM
- relative IC50 (UT-SCC-42A [6]; [18]): 2260 pM
- relative IC50 (UT-SCC-42A [6]; [19]): 7630 pM
- relative IC50 (UT-SCC-81 [7]; [17]): 1130 pM
- relative IC50 (UT-SCC-81 [7]; [18]): 543 pM
- relative IC50 (UT-SCC-81 [7]; [19]): 857 pM
- relative IC50 (UT-SCC-24B [8]): 1000 pM
- maximal % inhibition of viability (UT-SCC-14 [9]; [20]): 53.5 ± 4.4%
- maximal % inhibition of viability (UT-SCC-14 [9]; [21]): 52.5 ± 4.8%
- maximal % inhibition of viability (UT-SCC-14 [9]; [17]): 50.5 ± 2.5%
- maximal % inhibition of viability (UT-SCC-14 [9]; [18]): 45.4 ± 4.4%
- maximal % inhibition of viability (UT-SCC-14 [9]; [19]): 46.3 ± 8.9%
- maximal % inhibition of viability (UT-SCC-40 [10]; [20]): 33.9 ± 13%
- maximal % inhibition of viability (UT-SCC-40 [10]; [21]): 40.5 ± 20%
- maximal % inhibition of viability (UT-SCC-40 [10]; [17]): 24.6 ± 6.1%
- maximal % inhibition of viability (UT-SCC-40 [10]; [18]): 21.9 ± 3.2%
- maximal % inhibition of viability (UT-SCC-40 [10]; [19]): 22.1 ± 2.3%
- maximal % inhibition of viability (UT-SCC-42B [11]; [20]): 25.8 ± 20%
- maximal % inhibition of viability (UT-SCC-42B [11]; [17]): 17.6 ± 6.1%
- maximal % inhibition of viability (UT-SCC-42B [11]; [18]): 9.87 ± 4.1%
- maximal % inhibition of viability (UT-SCC-42B [11]; [19]): 15.3 ± 3.6%
- maximal % inhibition of viability (UT-SCC-8 [12]; [20]): 41.8 ± 4.6%
- maximal % inhibition of viability (UT-SCC-8 [12]; [21]): 31.4 ± 11%
- maximal % inhibition of viability (UT-SCC-8 [12]; [17]): 38.9 ± 9.9%
- maximal % inhibition of viability (UT-SCC-8 [12]; [18]): 48.1 ± 8.7%
- maximal % inhibition of viability (UT-SCC-8 [12]; [19]): 42.3 ± 5.6%
- maximal % inhibition of viability (UT-SCC-28 [13]; [20]): 29.7 ± 9.9%
- maximal % inhibition of viability (UT-SCC-28 [13]; [21]): 37.2 ± 7.1%
- maximal % inhibition of viability (UT-SCC-28 [13]; [17]): 38 ± 2.7%
- maximal % inhibition of viability (UT-SCC-28 [13]; [19]): 35.3 ± 4.3%
- maximal % inhibition of viability (UT-SCC-42A [14]; [20]): 35 ± 6.8%
- maximal % inhibition of viability (UT-SCC-42A [14]; [21]): 39.1 ± 4.7%
- maximal % inhibition of viability (UT-SCC-42A [14]; [17]): 41 ± 2.4%
- maximal % inhibition of viability (UT-SCC-42A [14]; [18]): 37.4 ± 3.1%
- maximal % inhibition of viability (UT-SCC-42A [14]; [19]): 39.6 ± 2.3%
- maximal % inhibition of viability (UT-SCC-81 [15]; [20]): 63.3 ± 16%
- maximal % inhibition of viability (UT-SCC-81 [15]; [21]): 56.5 ± 6%
- maximal % inhibition of viability (UT-SCC-81 [15]; [17]): 44.6 ± 5.2%
- maximal % inhibition of viability (UT-SCC-81 [15]; [18]): 54.3 ± 0.82%
- maximal % inhibition of viability (UT-SCC-81 [15]; [19]): 49.7 ± 7.5%
- maximal % inhibition of viability (UT-SCC-24B [16]; [20]): 25.8 ± 7.9%
- maximal % inhibition of viability (UT-SCC-24B [16]; [21]): 42.2 ± 4%
- maximal % inhibition of viability (UT-SCC-24B [16]; [17]): 27.4 ± 4.7%
- maximal % inhibition of viability (UT-SCC-24B [16]; [18]): 32.7 ± 1.8%
- maximal % inhibition of viability (UT-SCC-24B [16]; [19]): 29.7 ± 5.7%
